The values that follow come from patent publication US11072596B2, “Poly(ADP-ribose) polymerase inhibitor, preparation method and use” (SELECTION BIOSCIENCE LLC, priority 2017, dated 2021).

Data set [1] can be described thus: Liver microsomal stability in vitro, rat. It counts as in vitro ADME. To be noted: pH 7.4; rat liver microsomes 0.5 mg protein/mL, 1 μM test compound, 37° C.; read-out: Rat T1/2. How it is done:
(§1) Evaluation of in vitro liver microsomal stability of the compound of the present disclosure was tested by the following method:
(§2) Buffer: 100 mM potassium phosphate buffer, pH 7.4; […] MgCl2.
(§3) Liver microsomes: human liver microsomes, Corning Cat No. 452117; Rat liver microsomes, Xenotech Cat No. R1000; Mouse liver microsomes, Xenotech Cat No. M1000; Dog liver microsomes, Xenotech Cat No. D1000; Liver microsomes of cynomolgus monkey, Corning Cat No. 452413, the final concentration was 0.5 mg protein/mL.
(§4) 1. Intermediate solution: 5 μL of compound or control in stock solution (10 mM) was diluted with 495 μL of methanol (concentration: 100 μM, 99% MeOH).
(§5) 2. Operating solution: the intermediate solution was diluted […] with 450 μL 100 mM potassium phosphate buffer (concentration: 10 μM, 9.9% MeOH).
(§6) 1. 10 μL of compound or control solution per well was added to all plates (T0, T5, T10, T20, T30, T60, NCF60) except matrix blank.
(§7) 2. Microsome solution was distributed to 96-well plates according to platemap for standby, 680 μL per well, and the mixture of microsome solution and the compound was incubated at 37° C. for about 10 minutes.
4. […]
(§8) 10. Data analysis: The peak area of the corresponding compound and internal standard was detected by LC-MS/MS, and the T1/2 of the compound was calculated by the following formula: […]
In general terms: Liver microsomes are a subcellular fraction often used to study metabolism.

Data set [2] is described as follows: Liver microsomal stability in vitro, dog. It counts as in vitro ADME. The following applies: for half-life at 1 μM: pH 7.4, dog liver microsomes 0.5 mg protein/mL, 1 μM test compound, 37° C., read-out: Dog T1/2. How it is done:
as §1, §2, §3, §4, §5, §6, §7
4. After preheating, NADPH regeneration system was distributed to 96-well plate, 90 μL per well, for standby according to plate map, which was added to each plate to start the reaction, 10 μL per well. The final concentration of each component in the incubation medium includes: 0.5 mg protein/mL microsome, 1 μM test compound, […], 0.99% methanol and 0.01% DMSO.
6. The above-prepared stop solution (4° C. cooling) was added to stop the reaction, 300 μL per well.
9. During centrifugation, eight new 96-well plates were loaded with 300 μL of HPLC water, and then 100 μL of supernatant was transferred for mixing, followed by LC/MS/MS detection.
as §8

The subject of data set [3] is MDA-MB-436 cells. Nature of the data set: Pharmacodynamic study on mouse MDA-MB-436 model. The following applies: for T/C / TGI / Tumor volume (day 39) / Tumor volume (day 0): MDA-MB-436 in nude mice; for T/C / TGI / Tumor volume (day 39) / rate of test animals in which the tumor completely disappeared: 50 mg/kg PO x 18 days; for T/C / TGI / Tumor volume (day 39): day 39; for Tumor volume (day 0): day 0, before dosing; for rate of test animals in which the tumor completely disappeared: observed until the 39th day; for inhibitory effect on the tumor growth, in words: 50 mg/kg, continuous PO administration for 18 days. It counts as in vivo, BALB/c nude mice. The method, then:
BALB/c nude mice, aged 6-8 weeks old, weighing 18-22 g, female, provided by Shanghai Lab Animal Research Center (Shanghai Xipuer-Beikai) with the animal certificate no: 20130016001914.
Human breast cancer MDA-MB-436 cells (ATCC, Manacas, Va., Article number (Art. No.): ATCC-HTB-130) were cultured in vitro in monolayer under the conditions of RPMI1640 medium with 10% fetal bovine serum and 37° C. 5% CO2 incubator. The passage was routinely digested with trypsin-EDTA twice a week. When the cell saturation was up to 80%-90% and reached the requirement, the cells were collected, counted and inoculated. 0.2 mL (1×10^7) MDA-MB-436 cells (added with matrix gel, volume ratio 1:1) were subcutaneously inoculated into the right back of each mouse, and mice were randomly grouped and dosed when the average tumor volume reached 157 mm^3.
2.5 g of methylcellulose was slowly added into 80 mL of deionized water in a suitable container under stirring, stirred until uniform, 10 mL of Tween 80 was added to the solution, stirred until uniform, continued to add deionized water to 500 mL, and stirred until uniform to obtain a vehicle solution. Then an appropriate amount of p-toluenesulfonate of example 23 was weighed, and an appropriate amount of the above vehicle solution was added and vortexed until uniform.
The subcutaneous tumor volumes of nude mice were measured 2-3 times a week, and the mice were weighed, and the data were recorded.
Experimental evaluation index: tumor growth inhibition rate TGI (%) or relative tumor proliferation rate T/C (%) was used for evaluation, wherein T was the experimental group, and C was the control group.
Calculation of relative tumor proliferation rate: If T>T0, T/C (%)=(T−T0)/(C−C0)×100%, if T<T0, T/C (%)=(T−T0)/T0×100%, wherein T and C were tumor volumes at the end of the experiment; T0 and C0 were tumor volumes at the beginning of the experiment.

The target in data set [4] is hERG potassium ion channel (Homo sapiens, UniProt Q12809). Nature of the data set: hERG potassium ion channel inhibitory activity (Qpatch, CHO-hERG cells). The following applies: for inhibition at 2.5 min, 40 µM: human. The method, then:
CHO-hERG cells were cultured in a 175 cm^2 flask, and when the cell density was increased to 60-80%, the medium was removed and washed with 7 mL of PBS (Phosphate Buffered Saline phosphate buffer), and then digested with 3 mL of Detachin.
The single-cell high impedance sealing and the whole-cell mode formation process were all automatically completed by the Qpatch instrument. After obtaining the whole-cell recording mode, the cells were clamped at −80 mV (millivolt). Before giving a 5-second+40 mV depolarization stimulus, a 50 ms-50 mV pre-voltage was first given, repolarized to −50 mV for 5 seconds, and then returned to −80 mV. This voltage stimulation was applied every 15 seconds. After recording for 2 minutes, extracellular fluid was given for 5 minutes, and then the administration process was started. The compound concentration started from the lowest test concentration, and each test concentration was given for 2.5 minutes. […] At least 3 cells were tested at each concentration (n≥3).
The 20 mM compound mother solution was diluted with extracellular fluid, and 5 μL of 20 mM compound mother solution was added to 2495 μL of extracellular solution, diluted 500-fold to 40 μM, and then sequentially performed 3-fold continuous dilution in an extracellular fluid containing 0.2% DMSO to obtain the final concentration to be tested.
The experimental data were analyzed by XLFit software.
(hERG is a cardiac potassium channel; its block is linked to QT prolongation.)

The term IC50 denotes the concentration needed to halve the response being measured. Low readings indicate inhibition by little substance, high ones a need for much substance. One may read the inhibition as the relative decrease from the control value, in per cent. Lower therefore signals little suppression.

SMILES strings stand for the structures.

Chain of hERG potassium ion channel (Q12809 whole entry): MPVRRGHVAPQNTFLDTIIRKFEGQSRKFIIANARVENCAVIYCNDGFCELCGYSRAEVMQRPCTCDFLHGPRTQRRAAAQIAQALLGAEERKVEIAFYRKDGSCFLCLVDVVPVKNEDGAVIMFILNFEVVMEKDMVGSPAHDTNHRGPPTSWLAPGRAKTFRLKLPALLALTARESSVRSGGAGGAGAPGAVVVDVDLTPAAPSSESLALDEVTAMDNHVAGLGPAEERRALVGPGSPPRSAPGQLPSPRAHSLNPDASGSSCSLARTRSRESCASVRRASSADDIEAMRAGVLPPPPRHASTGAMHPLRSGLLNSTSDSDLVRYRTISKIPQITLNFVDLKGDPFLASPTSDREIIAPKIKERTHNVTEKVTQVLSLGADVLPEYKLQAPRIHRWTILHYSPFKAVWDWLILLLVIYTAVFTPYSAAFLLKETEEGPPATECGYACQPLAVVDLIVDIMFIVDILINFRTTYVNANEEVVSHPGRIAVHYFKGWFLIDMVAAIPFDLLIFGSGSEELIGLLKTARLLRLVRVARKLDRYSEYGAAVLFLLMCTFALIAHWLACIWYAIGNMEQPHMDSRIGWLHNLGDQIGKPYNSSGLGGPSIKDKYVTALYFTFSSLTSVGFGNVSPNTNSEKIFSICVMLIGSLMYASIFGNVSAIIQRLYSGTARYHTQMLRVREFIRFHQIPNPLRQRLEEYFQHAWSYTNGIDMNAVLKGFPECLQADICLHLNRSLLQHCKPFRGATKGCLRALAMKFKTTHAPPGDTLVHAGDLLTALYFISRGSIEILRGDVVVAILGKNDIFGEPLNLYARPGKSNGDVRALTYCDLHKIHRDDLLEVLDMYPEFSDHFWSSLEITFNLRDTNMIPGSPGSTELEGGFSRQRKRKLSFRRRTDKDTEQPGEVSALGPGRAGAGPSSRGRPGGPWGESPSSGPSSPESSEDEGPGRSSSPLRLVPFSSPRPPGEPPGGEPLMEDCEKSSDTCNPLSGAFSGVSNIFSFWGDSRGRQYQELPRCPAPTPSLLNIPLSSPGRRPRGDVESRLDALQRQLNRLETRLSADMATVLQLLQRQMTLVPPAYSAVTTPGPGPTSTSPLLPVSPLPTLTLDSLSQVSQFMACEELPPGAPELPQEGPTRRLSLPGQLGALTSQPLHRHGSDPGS

For the molecule `NC(=O)c1cccc2cn(-c3ccc([C@]4(F)CCCNC4)cc3)nc12` (single isomer, unassigned) [Example 23, (R or S)-2-(4-(3-fluoropiperidin-3-yl)phenyl)-2H-indazole-7-carboxamide], the half-life at 1 μM in data set [1] amounted to 64.2 min. Further, in data set [2] (dog liver microsomes), the “metabolic stability in dog liver microsomes, in words” value is listed as “excellent metabolic stability”. For the same molecule, the half-life at 1 μM in data set [2] was determined as 20.3 min. For the same molecule, in data set [3], the T/C is reported as −68%, the TGI was 168%, the “Tumor volume (day 39)” value turned out to be 49 mm^3 and the “Tumor volume (day 0)” value is 157 mm^3. The “anti-tumor activity compared with positive control Niraparib, in words” value in data set [3] (nude mouse MDA-MB-436 model, 50 mg/kg PO for 18 days) is listed as “stronger”. In data set [3] (nude mouse MDA-MB-436 model), the “rate of test animals in which the tumor completely disappeared” value came to 50% and the “inhibitory effect on the tumor growth, in words” value is “very strong inhibitory effect”. Besides, in data set [4], the concentration for half-maximal inhibition (IC50) was greater than 40 µM and the inhibition at 2.5 min, 40 µM is 29.8%.

Turning to `NC(=O)c1cccc2cn(-c3ccc([C@@H]4CCCNC4)cc3)nc12` [Niraparib, reference compound], the half-life at 1 μM in data set [1] came out at 106 min. Besides, in data set [2], the half-life at 1 μM was 22.6 min. Further, in data set [3], the T/C is given as 1.5%, the TGI is 98.5%, the “Tumor volume (day 39)” value was 187 mm^3 and the “Tumor volume (day 0)” value worked out at 157 mm^3. In addition, in data set [3] (nude mouse MDA-MB-436 model), the “rate of test animals in which the tumor completely disappeared” value is reported as “zero” and the “inhibitory effect on the tumor growth, in words” value was “very strong inhibitory effect”. The 50% inhibitory concentration (IC50) in data set [4] turned out to be 39.6 µM. Besides, the inhibition at 2.5 min, 40 µM in data set [4] (CHO cells that express hERG (CHO-hERG)) came out at 50.4%.
